Data as given in patent US5292737A, “N,N'-bis(sulfonamido)-2-amino-4-iminonaphthalen-1-ones and N,N'-bis(amido)-2-amino-4-iminonaphthalen-1-ones” (Sphinx Pharmaceuticals Corporation, priority 1992, dated 1994).
Read-outs that look alike come from different tables or passages of the source.

Key:
human neutrophils = assay: Neutrophil Superoxide Anion (O2) Release Assay, PMA-stimulated; format: cell-based; settings: PMA-stimulated human neutrophils, read-out: Neutrophil Superoxide Release IC50
Description: Phorbol-12,13-myristate acetate (PMA) stimulates O2 production in human neutrophils which in turn reduces cytochrome C. Reducing cytochrome C increases absorbance and the change in optical density (OD) is proportional to the amount of O2 produced by PMA stimulation. Inhibition is expressed as an IC50 value and is the amount of test compound that will inhibit fifty percent of the PMA-stimulated respiratory outburst, i.e. O2^31 production (Lherer et al. (1981) J. Clinical lnvest. 68:1314; Roberts et al. (1982) J. Immunological Methods 49:193).
Human donor blood in 0.38% Sodium Citrate was centrifuged for 10 minutes at 160 ×g at room temperature. Platelet-rich plasma was removed leaving the buffy coat and the red cell-enriched fraction. Saline with 0.38% Sodium Citrate was added to this fraction up to the original blood volume. The enriched blood sample was diluted 1:1 (v:v) with 3% dextran T500 (Pharmacia) in normal saline and placed in a 60 cc syringe, inverted over a beaker and allowed to settle 30 minutes at room temperature.
Leukocyte-enriched plasma was removed from the syringe, placed into 50 ml polypropylene conical centrifuge tubes and underlaid with 15-20 ml Lymphocyte Separation Medium (LSM Organon Technica). The tubes were centrifuged for 40 minutes at 500×g at room temperature. The plasma, buffy coat and LSM were aspirated off the pellets which contained red blood cells and neutrophils.
The pellets were vortexed and 10 ml ice-cold 0.2% NaCl was added to lyse the red blood cells while vortexing again for 10 seconds. Ice-cold 1.6% NaCl was added while vortexing for 10 seconds. The cells were combined from multiple tubes, centrifuged 10 min at 400×g at 4° C. This red cell lysis was repeated and the resulting neutrophil pellet was washed once in Reaction HBSS (GIBCO, HBSS with Ca^++ and Mg^++,.238% HEPES, 0.1% dextrose, 0.1% RIA grade bovine serum albumin, PH 7.2). The cells were resuspended in 1/5 the original blood volume with Reaction HBSS, counted and adjusted to 4.0×10^6 cells/ml at 4° C.
Duplicate samples of neutrophils were tested in 12×75 mm polypropylene tubes containing 0.25 ml of the neutrophil suspension. Cytochrome C mix (0.25 ml, 6.0 mg/ml cytochrome C type IV (Sigma) plus 1200 U/ml bovine liver catalase (Sigma) in Reaction HBSS described above) was added. PMA was added at 2×the final concentration in 0.5 ml of Reaction HBSS. PMA final test concentration were 0.0, 0.3, 9.0, 27.0, and 81.0 ng/ml. The tubes were vortexed and incubated for 10 minutes at 37° C. with shaking. After chilling for 5 minutes at 4° C. and centrifuging for 10 minutes at 4° C., 550×g, 0.5 ml of supernatant was removed from each tube. Normal saline (0.5 ml) was added to each 0.5 ml sample of supernatant and the absorbance of each sample was read at 550 nm on a spectrophotometer (Shimadzu). The PMA concentration which gives nearly maximal stimulation of superoxide release was determined.
The test samples of neutrophils were prepared as in the PMA dose response through addition of cytochrome C mix. Then 0.4 ml of Reaction HBSS as a control or test agent at 2.5×final test concentration was added and the tubes were vortexed and incubated for 30 minutes at 37° C. with shaking. PMA (0.1 ml) was added at a 10× concentration of the final concentration determined above. The samples were incubated for 10 minutes at 37° C. with shaking, chilled for 5 minutes at 4° C., and then centrifuged for 5 minutes at 550×g at 4° C. The supernatant (0.5 ml) was diluted with 0.5 ml normal saline as above and the absorbance was then determined at 550 nm. The percent change was calculated as follows: [formula] D-sphingosine (Sigma) used as reference standard.
Human neutrophils were first isolated according to Lherer et al. ((1981) J. Clinical Invest. 68:1314) and then tested for stimulation of superoxide anion release with phorbol--12,13-myristate acetate (PMA) in a dose-dependent manner. […]

[1] = system: normal human epidermal keratinocyte (NHEK) cells; assay: Human Keratinocyte Inhibition (3H TdR Assay); format: cell-based; settings: 24 h incubation, 3H-thymidine
Method: Proliferating normal human epidermal keratinocyte (NHEK) cells were obtained in the second passage and grown in keratinocyte growth medium, KGM (Clonetics, Inc.) at 37° C., 5% CO2. The cells were trypsinized (0.25%), centrifuged, counted with a hemocytometer, and seeded at a concentration of 5000 cells in 100 μl well in a 96-well microtiter plate.
After the cells were allowed to attach to the microtiter plate overnight, test agents were titrated to determine the dose response. This was done by adding each test agent dilution in quadruplicate to the plate at 2× final concentration in 100 μl to bring the total volume of each well to 200 μl. Culture media with no test agent added was used as a normal control. Duplicate sets of plates were established.
After twenty-four hours of incubation with test compounds 37° C. and 5% CO2, […] of 0.01 mCi/ml tritiated thymidine (New England Nuclear) was added to each well and allowed to incubate for another 4 hours under the same conditions.
Supernatant was aspirated and discarded and […] of 0.05% trypsin (Gibco) was added to each cell. Cells were checked microscopically to determine detachment from surfaces and then harvested onto glass filters. The filters were then placed in vials to which scintillant was added and counted for one minute each in a scintillation counter.
Determine mean cpm of wells containing test agent (n=4) or KGM control (n=16). Calculate % of control by the formula: [formula]
The IC50, or connection necessary to inhibit 50% of control, of each test agent was determined by plotting % control vs log concentration for each dilution and then linear forecasting the 50% control value onto the X axis on a Quatro Pro computer program. Only regression values with a correlation coefficient greater than 0.9 were considered acceptable.

Structure (SMILES)	IC50 (human neutrophils; Homo sapiens, Neutrophil) [nM]	IC50 (human neutrophils) [nM]	IC50 ([1]; Homo sapiens) [nM]	IC50 [1] [nM]
O=C1C(Nc2ccc(S(=O)(=O)NCCNc3ccc([N+](=O)[O-])cn3)cc2)=CC(=Nc2ccc(S(=O)(=O)NCCNc3ccc([N+](=O)[O-])cn3)cc2)c2ccccc21 [Compound 3ac]	50		80	
Cc1cc(C)nc(NS(=O)(=O)c2cccc(N=C3C=C(Nc4cccc(S(=O)(=O)Nc5cc(C)cc(C)n5)c4)C(=O)c4ccccc43)c2)c1 [Compound 3ae]	40		< 390	
COc1cc(NS(=O)(=O)c2ccc(N=C3C=C(Nc4ccc(S(=O)(=O)Nc5cc(OC)cc(OC)c5)cc4)C(=O)c4ccccc43)cc2)cc(OC)c1 [Compound 3af]	60		< 390	
Cc1cc(C)nc(NS(=O)(=O)c2cc(N=C3C=C(Nc4ccc(C)c(S(=O)(=O)Nc5cc(C)cc(C)n5)c4)C(=O)c4ccccc43)ccc2C)c1 [Compound 3ag]	40			
Cc1cc(C)nc(NC(=O)c2ccc(N=C3C=C(Nc4ccc(C(=O)Nc5cc(C)cc(C)n5)cc4)C(=O)c4ccccc43)cc2)c1 [Compound 3ah]	8970		1400	
Cc1cc(C)nc(NC(=O)c2ccc(N=C3C=C(Nc4ccc(C(=O)Nc5nc(C)cc(C)n5)cc4)C(=O)c4ccccc43)cc2)n1 [Compound 3ai]	4020		160	
Cc1noc(NS(=O)(=O)c2ccc(N=C3C=C(Nc4ccc(S(=O)(=O)Nc5onc(C)c5C)cc4)C(=O)c4ccccc43)cc2)c1C [Compound 3b]	7600		11600	
Cc1cc(C)nc(NS(=O)(=O)c2ccc(N=C3C=C(Nc4ccc(S(=O)(=O)Nc5nc(C)cc(C)n5)cc4)C(=O)c4ccccc43)cc2)n1 [Compound 3c]		770		520
Cc1cc(NS(=O)(=O)c2ccc(N=C3C=C(Nc4ccc(S(=O)(=O)Nc5cc(C)nc(C)n5)cc4)C(=O)c4ccccc43)cc2)nc(C)n1 [Compound 3d]	5850		2000	
Cc1nnc(NS(=O)(=O)c2ccc(N=C3C=C(Nc4ccc(S(=O)(=O)Nc5nnc(C)s5)cc4)C(=O)c4ccccc43)cc2)s1 [Compound 3e]	8380		8700	
Cc1ccnc(NS(=O)(=O)c2ccc(N=C3C=C(Nc4ccc(S(=O)(=O)Nc5nccc(C)n5)cc4)C(=O)c4ccccc43)cc2)n1 [Compound 3f]	2510		1200	
COc1cc(NS(=O)(=O)c2ccc(N=C3C=C(Nc4ccc(S(=O)(=O)Nc5cc(OC)nc(OC)n5)cc4)C(=O)c4ccccc43)cc2)nc(OC)n1 [Compound 3g]		2750		600
COc1cnc(NS(=O)(=O)c2ccc(N=C3C=C(Nc4ccc(S(=O)(=O)Nc5ncc(OC)cn5)cc4)C(=O)c4ccccc43)cc2)nc1 [Compound 3h]		8700	900	
O=C1C(Nc2ccc(S(=O)(=O)Nc3ccccn3)cc2)=CC(=Nc2ccc(S(=O)(=O)Nc3ccccn3)cc2)c2ccccc21 [Compound 3i]	100			610
COc1ccc(NS(=O)(=O)c2ccc(N=C3C=C(Nc4ccc(S(=O)(=O)Nc5ccc(OC)nn5)cc4)C(=O)c4ccccc43)cc2)nn1 [Compound 3j]	1740			340
O=C1C(Nc2ccc(S(=O)(=O)Nc3ccc(Cl)nn3)cc2)=CC(=Nc2ccc(S(=O)(=O)Nc3ccc(Cl)nn3)cc2)c2ccccc21 [Compound 3l]		900	4300	
O=C1C(Nc2ccc(S(=O)(=O)Nc3cnc4ccccc4n3)cc2)=CC(=Nc2ccc(S(=O)(=O)Nc3cnc4ccccc4n3)cc2)c2ccccc21 [Compound 3m]	1310		400	
O=C1C(Nc2ccc(S(=O)(=O)NCc3ccccn3)cc2)=CC(=Nc2ccc(S(=O)(=O)NCc3ccccn3)cc2)c2ccccc21 [Compound 3n]		220		1100

Further lines, with some results ahead:

IC50 (human neutrophils; Homo sapiens, Neutrophil) [nM]	IC50 (human neutrophils) [nM]	Structure (SMILES)	IC50 ([1]; Homo sapiens) [nM]	IC50 [1] [nM]
	8000	Cc1cc(NS(=O)(=O)c2ccc(N=C3C=C(Nc4ccc(S(=O)(=O)Nc5cc(C)on5)cc4)C(=O)c4ccccc43)cc2)no1 [Compound 6a]		1200
	70	COc1cc(NS(=O)(=O)c2ccc(N=C3C=C(Nc4ccc(S(=O)(=O)Nc5cc(OC)cc(OC)c5)cc4)C(=O)c4ccccc43)cc2)cc(OC)c1 [Compound 6af]		
	60	Cc1cc(C)nc(NS(=O)(=O)c2cc(N=C3C=C(Nc4ccc(C)c(S(=O)(=O)Nc5cc(C)cc(C)n5)c4)C(=O)c4ccccc43)ccc2C)c1 [Compound 6ag]	500	
	1880	Cc1cc(C)nc(NS(=O)(=O)c2ccc(N=C3C=C(Nc4ccc(S(=O)(=O)Nc5nc(C)cc(C)n5)cc4)C(=O)c4ccccc43)cc2)n1 [Compound 6c]		40
	6470	Cc1cc(NS(=O)(=O)c2ccc(N=C3C=C(Nc4ccc(S(=O)(=O)Nc5cc(C)nc(C)n5)cc4)C(=O)c4ccccc43)cc2)nc(C)n1 [Compound 6d]		2500
	4780	Cc1nnc(NS(=O)(=O)c2ccc(N=C3C=C(Nc4ccc(S(=O)(=O)Nc5nnc(C)s5)cc4)C(=O)c4ccccc43)cc2)s1 [Compound 6e]		8600
	2110	Cc1ccnc(NS(=O)(=O)c2ccc(N=C3C=C(Nc4ccc(S(=O)(=O)Nc5nccc(C)n5)cc4)C(=O)c4ccccc43)cc2)n1 [Compound 6f]		1400
	1340	COc1cc(NS(=O)(=O)c2ccc(N=C3C=C(Nc4ccc(S(=O)(=O)Nc5cc(OC)nc(OC)n5)cc4)C(=O)c4ccccc43)cc2)nc(OC)n1 [Compound 6g]		1400
	2400	COc1cnc(NS(=O)(=O)c2ccc(N=C3C=C(Nc4ccc(S(=O)(=O)Nc5ncc(OC)cn5)cc4)C(=O)c4ccccc43)cc2)nc1 [Compound 6h]		1200
	110	O=C1C(Nc2ccc(S(=O)(=O)Nc3ccccn3)cc2)=CC(=Nc2ccc(S(=O)(=O)Nc3ccccn3)cc2)c2ccccc21 [Compound 6i]		7300
	3330	COc1ccc(NS(=O)(=O)c2ccc(N=C3C=C(Nc4ccc(S(=O)(=O)Nc5ccc(OC)nn5)cc4)C(=O)c4ccccc43)cc2)nn1 [Compound 6j]		820
	5230	O=C1C(Nc2ccc(S(=O)(=O)Nc3ccc(Cl)nn3)cc2)=CC(=Nc2ccc(S(=O)(=O)Nc3ccc(Cl)nn3)cc2)c2ccccc21 [Compound 6l]		3300
	1390	O=C1C(Nc2ccc(S(=O)(=O)Nc3cnc4ccccc4n3)cc2)=CC(=Nc2ccc(S(=O)(=O)Nc3cnc4ccccc4n3)cc2)c2ccccc21 [Compound 6m]		< 390
